Measurements: patent US20180244653A1, “SELECTIVE ALPHA-7 NICOTINIC RECEPTOR AGONISTS AND METHODS FOR MAKING AND USING THEM” (THE REGENTS OF THE UNIVERSITY OF CALIFORNIA, priority 2015, published 2018)
Entries after “also recorded” stand apart in the source; their conditions may differ.

Tests used:
[1] = tested on: scopolamine-induced amnesic mice; assay: Object recognition test (ORT); assay type: in vivo; settings: i.p.; for Discrimination index / episodic short-term memory, ORT vs scopolamine-treated group: tacrine 1 mg/kg, IND8, QND8 10 and 50 μmol/kg; for Minimum effective dose, ORT: scopolamine induced amnesia model, ICR mice
Description: FIG. 22 illustrates exploration time to familiar (F) and novel (N) objects of IND8 (A) and QND8 (B) in test phase of ORT. Each mouse was allowed to explore an open field apparatus for 5 min in a habituation phase. After a 24 h period, IND8, QND8, PNU-282987, vehicle (15% Tween80, SH) and tacrine (TC) were injected 1 h and scopolamine (SC) 30 min before sample phase, respectively. Each mouse explored 2 identical objects in the sample phase for 5 min and then placed in its cage for 10 min before the test phase began. In the 5 min of test phase, one of the objects was changed to a new one. The exploration time of these objects was recorded.
In both data sets, a discrimination index (DI) was calculated and used to evaluate the ability of mice to discriminate between familiar and novel objects. Data are represented in FIG. 23.
Amnesia was induced pharmacologically in mice via scopolamine injection (single dose) for 30 min prior to start the experiments. They were divided into vehicle group: receiving 15% tween 80 and 0.9% NSS, amnesia group: receiving scopolamine 1 mg/kg, standard positive control group receiving tacrine 1 mg/kg, and test group: receiving IND8, QND8 at dose 5, 10, 25, 50 μmol/kg, or PNU-282987 3, 10 mg/kg, single dose. All mice were acclimated in an experimental room at least 30 min before the experiments.
The apparatus was made of black polyvinyl chloride (52×52×40 cm). The objects used in this experiment had different visual shapes and colors to be discriminated. They were placed 10 cm from the side wall in the balanced manner. The box area and objects were cleaned with 70% ethanol between each experiment to remove odor cues.
The mice were randomly divided into different treatment groups. They were allowed to freely explore the open field apparatus for 5 min for habituation in the day prior to the experiments to get familiar with the apparatus. On the experimental day, test compounds injected 1 h, whereas scopolamine administered 30 min before the sample phase (acquisition trial). The mice were placed in the apparatus to explore 2 identical objects. After 10 min of acclimation in their cages, one object was changed to a new one, and mice were allowed to explore these objects for 5 min in the test phase (retention trial). The exploration time of each object was recorded if the nose of mice approached the objects within 3 cm or touched the objects. The discrimination index (DI) was calculated by using (TN−TF)/(TN+TF); TN and TF represented exploration time of new and familiar objects, respectively.

[2] = tested on: scopolamine-induced amnesic mice; assay: Water maze test; assay type: in vivo; settings: i.p.; IND8 25 and 50 μmol/kg, QND8 25 μmol/kg
Description: The water maze test, a model for spatial learning and reference memory, related to function in the hippocampus, was also used as a study model in which mice locate a hidden platform after training session. Mice were trained to locate a hidden platform until a steady state measured by a shortened escape latency time was reached.
The average swimming time in a target quadrant where the platform had previously been placed was measured in the test day, day 8 (FIG. 25).
FIG. 25 illustrates the average swimming time in the target quadrant of water maze test. Data are presented in means±SE. IND8, QND8, PNU-282987, vehicle (15% Tween80, SH) and tacrine (TC) were injected 1 h and scopolamine (SC) 30 min before testing, respectively.
A black circular tank (diameter 70 cm; height 28 cm) was divided into 4 quadrants with a removable escape platform (6×7.5×14 cm) centered in a target quadrant. The tank was filled with water to 15 cm height and the platform was located 1 cm below the water surface.
Mice were trained from 5-7 days to get the steady state of escape latency. During day 1 to 5, each mouse was trained to swim from each quadrant with 1 min maximum time and allowed to stay on the platform for 10 sec. The mouse is placed on the platform for 10 s if it cannot find the hidden platform within 1 min. The escape latency time from each quadrant was measured. […] The probe test began when the escape latency time reached the steady state. The platform was removed and time spent in the target quadrant was measured. On the next day, all conditions were the same as probe test, but the platform was brought back to remind the mice of the target quadrant location. All mice were injected with test compounds 1 h and scopolamine 30 min before testing. The swimming time in the target quadrant was measured.

mice = assay: Locomotor activity test (Y-maze); assay type: in vivo; settings: all tested doses, i.p., 1 h before
Description: A black polyvinyl chloride Y-maze, which was 40 cm long, 3 cm wide at the bottom and 10 cm wide at the top, and 12 cm high in each arm, was used to study the effect of synthesized compounds on locomotor activity. Each mouse was placed at the end of one arm and was allowed to move freely in Y-maze for 8 min after 1 h injection of vehicle or test compounds. The number of entries to all arms was recorded visually if mice accessed into each arm at least 10 cm from the middle of the maze.
Figure S1. Locomotor activity testing of IND8 (A) and QND8 (B). Mice were injected vehicle or test compounds 1 h before moving freely in Y-maze for 8 min. The number of entries into 3 arms was recorded. The one-way ANOVA was used to evaluate the different result between test and vehicle groups.

hERG K^+ channel = hERG K^+ channel (Homo sapiens, UniProt Q12809); settings: at 20 μM; cited from earlier work
hERG K^+ channel, sequence (Q12809 whole entry): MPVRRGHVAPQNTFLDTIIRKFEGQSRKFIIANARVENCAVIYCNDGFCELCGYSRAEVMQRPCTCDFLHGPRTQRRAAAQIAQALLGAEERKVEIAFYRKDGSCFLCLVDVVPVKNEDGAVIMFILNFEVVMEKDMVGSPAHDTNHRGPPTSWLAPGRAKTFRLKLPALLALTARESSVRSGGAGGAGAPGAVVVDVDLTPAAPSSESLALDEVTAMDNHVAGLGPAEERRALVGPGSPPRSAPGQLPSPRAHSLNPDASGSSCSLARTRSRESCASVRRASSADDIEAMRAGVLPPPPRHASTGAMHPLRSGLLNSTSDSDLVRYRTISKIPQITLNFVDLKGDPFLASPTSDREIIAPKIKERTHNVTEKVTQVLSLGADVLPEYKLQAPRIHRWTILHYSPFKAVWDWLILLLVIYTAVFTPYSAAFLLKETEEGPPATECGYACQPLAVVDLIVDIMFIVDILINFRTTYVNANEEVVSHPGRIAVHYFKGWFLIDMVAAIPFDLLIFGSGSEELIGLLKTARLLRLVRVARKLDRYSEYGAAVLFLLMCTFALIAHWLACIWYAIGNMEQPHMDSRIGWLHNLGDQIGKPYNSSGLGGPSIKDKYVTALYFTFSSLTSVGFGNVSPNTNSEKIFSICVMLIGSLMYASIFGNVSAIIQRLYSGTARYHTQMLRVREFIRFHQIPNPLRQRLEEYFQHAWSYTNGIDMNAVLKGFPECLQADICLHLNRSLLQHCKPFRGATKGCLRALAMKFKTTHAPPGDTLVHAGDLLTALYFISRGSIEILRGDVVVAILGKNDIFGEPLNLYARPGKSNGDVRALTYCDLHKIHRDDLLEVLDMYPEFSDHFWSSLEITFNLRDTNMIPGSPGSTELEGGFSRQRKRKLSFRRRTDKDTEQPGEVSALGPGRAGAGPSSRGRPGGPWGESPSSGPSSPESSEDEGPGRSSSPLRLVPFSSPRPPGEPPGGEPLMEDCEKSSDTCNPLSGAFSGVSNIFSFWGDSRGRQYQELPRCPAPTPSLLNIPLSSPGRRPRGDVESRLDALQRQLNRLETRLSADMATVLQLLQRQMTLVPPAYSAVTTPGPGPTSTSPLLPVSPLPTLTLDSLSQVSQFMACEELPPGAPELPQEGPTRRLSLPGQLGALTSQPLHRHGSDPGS

SMILES	Discrimination index / episodic short-term memory, ORT vs scopolamine-treated group [1]	Minimum effective dose, ORT [1] [µmol/kg]	Time in target quadrant, water maze vs scopolamine-treated group [2]	Locomotor activity (number of arm entries) vs vehicle (mice)	inhibition of hERG (hERG K^+ channel) [%]
c1cc2cc(-c3cn(C4CN5CCC4CC5)nn3)ccc2[nH]1 (stereo not drawn) [IND8, 5-((Quinuclid-3-yl)-1H-1,2,3-triazol-4-yl)-1H-indole]	significantly improved episodic short-term memory	10	significantly spent more time than amnesia group	neither a reduction nor an increase in locomotor activity was observed; also recorded: no significant difference	–
O=C(N[C@H]1CN2CCC1CC2)c1ccc(Cl)cc1 [PNU-282987, reference compound]	–	–	–	–	57
Oc1ccc(-c2cn(C3CN4CCC3CC4)nn2)cc1 (stereo not drawn) [QND8, 3-(4-hydroxyphenyl-1,2,3-triazol-1-yl) quinuclidine]	significantly improved episodic short-term memory	10	significantly spent more time than amnesia group	neither a reduction nor an increase in locomotor activity was observed; also recorded: no significant difference	–
